US20260275242A1, “PHOSPHONATE-FREE CHELATING AGENTS AND METHODS FOR FABRIC CARE” (THE PROCTER & GAMBLE COMPANY, priority 2023, published 2026)

Experiments:
Format in all cases: physicochemical
[1] = pKa of chelating agents (Table 1); details: successive pKa values; (A)/(B) printed beside the catechin values
Excerpt: Chelation is a type of bonding of ions and molecules to metal ions. It involves the formation or presence of two or more separate coordinate bonds between a ligand and a metal atom. Without being bound by theory, the stain removal effectiveness of a composition comprising one or more chelating agents may depend at least in part on the ability of the chelating agent(s) to bind to iron, which may be present in some stains, such as fruit or beverage stains. Several factors may impact a chelating agent's ability to bind to iron. These factors may include the pKa of the chelating agent compared to the wash pH, and the affinity of the chelating agent to bind with other metals, materials, or compositions in the wash.
Various embodiments may provide or employ a composition that comprises one or more chelating agents having a pKa that is near to or less than the wash pH. […] Various embodiments may also employ a wash liquor pH of about 10 or less, about 9.5 or less, less than about 9, preferably from about 6.5 to about 8.5, most preferably from about 7.0 to about 8.5. They may also include the step of maintaining the pH of the wash liquor at about 10 or less, about 9.5 or less, less than about 9, preferably from about 6.5 to about 8.5, most preferably from about 7.0 to about 8.5.

[2] = Calcium binding efficiency, logK(β110) (Table 1); details: one metal, one ligand, no protons
Excerpt: (§1) The binding efficiencies may be expressed as a binding constant. A binding constant (also called formation constant or stability constant) is an equilibrium constant for the formation of a complex in solution. It is a measure of the strength of the interaction between the reagents that come together to form the complex. As an example, various stains may comprise catechins as shown in Formula (13).
(§2) In Table 1, the reaction between metals and ligands is described in terms of log K(β110). In this context, K, is the equilibrium constant for the reaction between ligands and metals. The higher K, the more metal is bound. This is illustrated in the following example.
(§3) β, represents the binding efficiency and receives some subscripts (βmlh) to indicate how many metals (m), ligands (l), and protons (h) respectively are involved.

[3] = Iron binding efficiency, logK(β110) (Table 1); details: one metal, one ligand, no protons
Excerpt: as §1, §2, §3

| pKa [1] | Ca^2+ logK(β110) [2] | Fe (III) logK(β110) [3] | SMILES |
| --- | --- | --- | --- |
| 8.7 | 6.7 | 14.7 | CCOC(=O)c1cc(O)c(O)c(O)c1 [Ethyl Gallate] |
| 8.7 | 6.7 | 14.7 | COC(=O)c1cc(O)c(O)c(O)c1 [Methyl Gallate] |
